We go through 5 molecules from publication PMC2747106 (Journal of veterinary pharmacology and therapeutics, 2009).

Where a name gives a salt, the structure may show the parent alone.

For data set [1], the system named is organic cation transporters (OCT). In words: Inhibition study: effect of inhibitors on TEA permeation across BME-UV monolayer. Conditions: inhibitor added to donor compartment. The class given is cell-based, bovine.
In data set [2] the test system is organic anion transporters (OAT). In words: Inhibition study: effect of inhibitors on ES permeation across BME-UV monolayer. To be noted: inhibitor added to donor compartment. Type of data set: cell-based, bovine.
For data set [3], the system named is mouse mammary epithelial monolayer. To be noted: ref Toddywalla et al., 1997; cited from earlier work.
In data set [4] the test system is human mammary epithelial monolayer. To be noted: ref Kimura et al., 2006; cited from earlier work.
The conditions of data set [5]: bovine.
Data set [6] is described as follows: in vitro.
The subject of data set [7] is monolayer of BME-UV cells.
The test system of data set [8] is organic cation transporters (TEA); organic anion transporters (ES). Conditions: bovine.
Where [9] appears, read: either direction (data not shown).

In the case of `CCN1C(=Cc2ccc3ccccc3[n+]2CC)C=Cc2ccccc21.[I-]` [cyanine, 1,1-Diethyl-2,2-cyanine iodide], in data set [1] (BL-to-Ap direction only), the “decrease of permeation rate constant of TEA by inhibitor” value is recorded as “approximately 49%”. Moreover, the “effect of inhibitor on permeation rate constant of ES” value in data set [2] (setting [9]) is on record as “not changed significantly”.

As a reminder, the Papp is a coefficient for how fast a substance crosses the barrier. A low value points to poor permeation. `OC[C@@H](O)[C@@H](O)[C@H](O)[C@H](O)CO` [mannitol]: the Papp of mannitol in data set [3] is 1.94 ×10⁻⁶ cm/s; in data set [4], 2.6 ×10⁻⁶ cm/s. The Papp at 4 h, 2 µM in data set [5] stood at 0.91 ± 0.4 ×10⁻⁶ cm/s.

One may read the Papp A→B as how fast a substance crosses the layer from the apical side. A low value points to poor permeation. What is called Papp B→A is the apparent permeability from the basolateral to the apical side of a cell layer. For the molecule `CC[N+](CC)(CC)CC` [TEA, Tetraethylammonium bromide], in data set [6], the Papp at 4 h came to 161 ± 18 ×10⁻⁶ cm/s. Also, the “permeation rate constant for TEA relative to ES, Ap-to-BL” value in data set [7] (Ap-to-BL direction) is given as 3 times. Besides, the “permeation rate constant for TEA relative to ES, BL-to-Ap” value in data set [7] (BL-to-Ap direction) turned out to be 2 times. For the same molecule, in data set [8], the Papp A→B at 4 h, 100 µM was found to be 2 ± 0.02 ×10⁻⁶ cm/s and the Papp B→A at 4 h, 100 µM came to 5.1 ± 0.4 ×10⁻⁶ cm/s.

Take `CCCN(CCC)S(=O)(=O)c1ccc(C(=O)O)cc1` [probenecid]: the “effect of inhibitor on permeation rate constant of TEA” value in data set [1] (setting [9]) was “not changed significantly”. Further, the “decrease of permeation rate constant of ES by inhibitor” value in data set [2] (BL-to-Ap direction only) is listed as “approximately 36%”.

On to `C[C@]12CC[C@@H]3c4ccc(OS(=O)(=O)O)cc4CC[C@H]3[C@@H]1CCC2=O` [ES, estrone sulfate], for which the apparent permeability coefficient (Papp) at 4 h in data set [6] was determined as 122 ± 34 ×10⁻⁶ cm/s. Further, in data set [8], the Papp A→B at 4 h, 100 µM is 0.66 ± 0.06 ×10⁻⁶ cm/s and the apparent permeability from basolateral to apical (Papp B→A) at 4 h, 100 µM came out at 2.2 ± 0.1 ×10⁻⁶ cm/s.
